From patent US8722343B2, “Methods and compositions for the diagnosis and treatment of diabetes” (priority 2008, dated 2014)

Experiments:
[1] = biological target: T1, GLT1 (Mus musculus, UniProt P43006); assay: Na-dependent [3H]-D-aspartate uptake in βTC3 cells; assay type: cell-based
T1 construct: Since GLT1 is endogenously expressed in beta-TC3; endogenous in cells; host or cells: βTC3 mouse pancreatic beta-cell line
Protocol: (§1) 2D: 3H-D-Aspartate uptake. Four days after plating the Na-dependent (NaCl) and Na-independent (ChCl) [3H]-D-Aspartate uptake was measured in αTC1 and βTC3 cells. Data are expressed as cpm/well/10 min and represent the mean±SE of at least three independent experiments performed in triplicate. * (NaCl vs ChCl) P<0.001; ° (DHK versus control) P<0.001.
3×10^5 βTC3 cells/well were plated onto 24-well culture plates and the Na-dependent [3H]-D-Aspartate uptake was measured in the presence or the absence of increasing DHK concentrations (0.05-0.3 mM). Data are expressed as cpm/well/10 min and represent the mean±SE of at least three independent experiments performer in triplicate. * (DHK versus controls) P<0.001.
150.000 cells/well were plated in a 24-wells plate, and grown until confluence. After two washes in sodium-free solution (150 mM ChCl, 2 mM KCl, 1 mM CaCl2, 1 mM MgCl2, 10 mM Hepes pH 7.5), cells were incubated for 10 minutes in 200 μl of Na^+-dependent (150 mM NaCl 2 mM KCl, 1 mM CaCl2, 1 mM MgCl2, 10 mM Hepes pH 7.5) or Na^+-independent (sodium-free solution) uptake solution containing 5 μCi/ml of [^3H]D-Aspartic acid (specific activity 37 Ci/mmol; Amersham Biosciences). The amino acid uptake was stopped by washing the cells twice in ice-cold sodium-free solution. Cells were dissolved in 150 μl of SDS 1% for liquid scintillation counting. […]

[2] = MTT cell viability assay in βTC3 cells; assay type: cell-based, mouse; conditions: mouse; 0.05 mM DHK, five days; read-out: decrease in RGR (βTC3 viability)
Protocol: 1A: Glutamate induces a dose-dependent beta-cell death. 24 hrs after plating, αTC1 and βTC3 cells were incubated for five days with the indicated glutamate concentrations and viability was assessed by MTT assay. Data are presented as % Relative Growth Rate (RGR) versus controls (100%) and represent the mean±SE of at least 7 independent experiments (n=6). * p<0.01 vs ctrl; ° p<0.01 vs Glu 5 mM in αTC1.
1C: β-cell death is prevented by pharmacological inhibition of ionotropic channels. 24 hrs after plating, αTC1 and βTC3 cells were incubated for five days with 0.025 mM CNQX (left panel) or 0.1 mM APV (right panel), in the presence or the absence of 5 mM glutamate and viability was assessed by MTT assay. Data are presented as % RGR versus control samples (100%) and represent the mean±SE of three independent experiments (n=5). * p<0.05
6B. MTT assay. 24 hrs after plating, αTC1 and βTC3 cells were incubated for five days with different DHK concentrations and viability was assessed by MTT assay. Data are presented as % RGR versus control (100%) and represent the mean±SE of three independent experiments (n=8). * (DHK versus control) p<0.05
8B: MTT assay: 24 hrs after plating, βTC3 cells were incubated for five days with the indicated ceftriaxone concentrations in the presence or absence of 5 mM glutamate and viability was assayed by MTT assay. Data are presented as % RGR versus control (100%) and represent the mean±SE of three independent experiments (n=8). *(ceftriaxone versus relative control) p<0.05.
βTC3 and αTC1 cells were derived from progeny of transgenic mice expressing SV40 large T-antigen under control of the rat insulin II 5′-flanking region or rat preproglucagon 5′-flanking region, respectively (Powers et al, 1990) and were originally provided by Douglas Hanahan (Department of Biochemistry and Biophysics, University of California, San Francisco, Calif.). βTC3 were grown in RPMI 1640 11 mM glucose, supplemented with 10% heat inactivated fetal bovine serum, 2 mM L-glutamine, and 100 IU/ml streptomycin/penicillin, as previously described (Galbiati et al, 2002). Experiments were performed between the 27 and 33 passage of cell culture.
3-(4,5-Dimethylthiazol-2-yl)-2,5-diphenyltetrazolium bromide (MTT) assay. βTC3 cells were seeded at a density of 8×10^3 cells/well onto 96-well culture plates. Cells were allowed to attach and grow for 24 h in standard medium. Then medium was replaced with fresh medium containing glutamate, DHK (Dihydrokainic Acid, Sigma Aldrich), glutamate receptor inhibitors APV and CNQX (Sigma Aldrich) or ceftriaxone (Sigma Aldrich) at the indicated concentrations. […] Coloured formazan product was determined spectrophotometrically at 540 nm. 20 islets/tube were used to assess viability in human isolated islets. Data are expressed as % Relative Growth Rate (% RGR) versus control samples.

[3] = biological target: T2, GLT1 (Homo sapiens, UniProt P43004); assay: Na-dependent [3H]-D-aspartate uptake in isolated human islets; assay type: cell-based; parameters: dose or concentration left out as unconfirmed
T2 construct: from tissue; host or cells: isolated human pancreatic islets from cadaveric multiorgan donors
T2 sequence (P43004 whole entry): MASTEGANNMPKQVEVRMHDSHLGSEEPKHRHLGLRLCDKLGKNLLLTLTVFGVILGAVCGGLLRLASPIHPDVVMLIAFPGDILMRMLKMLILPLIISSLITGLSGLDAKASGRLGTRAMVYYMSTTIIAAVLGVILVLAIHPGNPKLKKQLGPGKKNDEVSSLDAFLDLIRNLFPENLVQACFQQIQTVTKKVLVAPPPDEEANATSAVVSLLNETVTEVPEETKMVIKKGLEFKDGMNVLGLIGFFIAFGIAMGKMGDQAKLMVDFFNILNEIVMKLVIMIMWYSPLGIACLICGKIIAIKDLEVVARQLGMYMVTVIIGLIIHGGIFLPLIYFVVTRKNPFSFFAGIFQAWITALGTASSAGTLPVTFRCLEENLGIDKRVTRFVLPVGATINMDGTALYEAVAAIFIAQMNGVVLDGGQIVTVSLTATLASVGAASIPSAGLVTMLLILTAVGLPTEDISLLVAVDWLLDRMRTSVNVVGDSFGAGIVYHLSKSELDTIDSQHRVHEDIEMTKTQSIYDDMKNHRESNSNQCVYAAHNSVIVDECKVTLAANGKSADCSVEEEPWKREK
Protocol: 3B: 3H-D Aspartate uptake. The Na-dependent (NaCl) and Na-independent (ChCl) [3H]-D-Aspartate uptake was measured in 40, hand picked, isolated human islets. […] Data are expressed as % of Na-dependent uptake (NaCl) and represent the mean±SE of at least three independent experiments performed in triplicate. * (DHK versus controls) P<0.001.
Human pancreatic islets were isolated from the pancreases of cadaveric multiorgan donors by using the procedure already described by Ricordi (Ricordi, et al, 1988). The islets used in this study were isolated from eight different organs. After the isolation, the islets were purified from the contaminant exocrine tissue by centrifugation on Ficoll gradients, obtaining a final purity that ranged from 60% to 80%, as assayed by dithizone staining (Ricordi et al, 1988). Islets were then cultured in RPMI 1640 tissue culture medium. After a 48-h stabilization culture, old medium was replaced with fresh medium and islets were cultured until used for insulin secretory studies, RNA extraction and uptake experiments. For apoptosis assay, fresh medium containing glutamate (0.5 or 5 mM) or DHK (0.05 or 0.1 mM) was replaced and islets were cultured for additional five days.
150.000 cells/well were plated in a 24-wells plate, and grown until confluence. […]

[4] = system: αTC1 cells; assay: Na-dependent [3H]-D-aspartate uptake in αTC1 cells; assay type: cell-based, mouse; conditions: DHK in uptake solution
Protocol: as §1
150.000 cells/well were plated in a 24-wells plate, and grown until confluence. After two washes in sodium-free solution (150 mM ChCl, 2 mM KCl, 1 mM CaCl2, 1 mM MgCl2, 10 mM Hepes pH 7.5), cells were incubated for 10 minutes in 200 μl of Na^+-dependent (150 mM NaCl 2 mM KCl, 1 mM CaCl2, 1 mM MgCl2, 10 mM Hepes pH 7.5) or Na^+-independent (sodium-free solution) uptake solution containing 5 μCi/ml of [^3H]D-Aspartic acid (specific activity 37 Ci/mmol; Amersham Biosciences). The amino acid uptake was stopped by washing the cells twice in ice-cold sodium-free solution. Cells were dissolved in 150 μl of SDS 1% for liquid scintillation counting. For transport inhibition, DHK was added to the uptake solution at the indicated concentrations.

T1 sequence (P43006 1-569 isoform P43006-2): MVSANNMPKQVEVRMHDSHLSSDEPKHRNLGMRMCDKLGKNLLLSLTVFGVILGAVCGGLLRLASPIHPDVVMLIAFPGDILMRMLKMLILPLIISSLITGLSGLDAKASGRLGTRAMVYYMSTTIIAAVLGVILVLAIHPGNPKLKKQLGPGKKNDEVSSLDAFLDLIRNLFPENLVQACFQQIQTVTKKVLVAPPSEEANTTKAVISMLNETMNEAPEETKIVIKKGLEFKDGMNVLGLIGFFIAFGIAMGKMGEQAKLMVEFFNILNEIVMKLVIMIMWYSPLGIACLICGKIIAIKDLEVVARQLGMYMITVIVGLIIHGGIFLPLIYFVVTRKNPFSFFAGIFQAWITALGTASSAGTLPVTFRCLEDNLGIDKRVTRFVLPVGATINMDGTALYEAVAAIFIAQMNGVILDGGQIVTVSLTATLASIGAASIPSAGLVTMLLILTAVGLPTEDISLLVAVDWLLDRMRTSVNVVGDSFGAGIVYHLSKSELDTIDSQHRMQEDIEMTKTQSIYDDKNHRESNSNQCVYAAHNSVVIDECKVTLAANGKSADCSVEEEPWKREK

## CC(C)[C@H]1CN[C@H](C(=O)O)[C@H]1CC(=O)O [DHK, Dihydrokainic Acid]
[1]; 1 mM DHK
  Na-dependent aspartate uptake: completely inhibited
[1]; DHK 0.05-0.3 mM, read-out: IC50, inhibition of Na-dependent D-aspartate uptake
  IC50: 50 µM
[2]
  cytotoxicity at 5 days, 0.05 mM: 6.17%
[3]
  Na-dependent transport of aspartate: completely inhibited
[4]
  Na-dependent D-aspartate uptake: not inhibited
